Experiment [1] has as its system C. difficile ATCC BAA-1870. The experiment can be described thus: Initial screening of antiparasitic drugs, broth microdilution MIC. The class given is cell-based, Clostridium difficile. As to conditions: Clostridioides difficile.
In experiment [2] the test system is C. difficile ATCC 43255. The experiment can be described thus: Checkerboard assay, DIHQ with metronidazole or vancomycin. The class given is cell-based, Clostridium difficile. As to conditions: for MIC: Clostridioides difficile. The procedure:
(§1) The fractional inhibitory concentration index (ΣFIC) was calculated for each interaction. Interactions where the ΣFIC index was ≤0.5 were categorized as synergistic (SYN).

Experiment [3] deals with C. difficile ATCC BAA-1870. The experiment is described as above. The class given is cell-based, Clostridium difficile. As to conditions: for MIC: Clostridioides difficile. The procedure:
as §1

Experiment [4] relates to C. difficile I9. The experiment is described as above. It is filed as cell-based, Clostridium difficile. The conditions noted are these: for MIC: Clostridioides difficile. The procedure: as §1
Experiment [5] deals with Bifidobacterium strains. The experiment can be described thus: MIC against normal gut microflora. The class given is cell-based. The conditions noted are these: Bifidobacterium strains tested. The procedure: (§2) In vitro antimicrobial evaluation of diiodohydroxyquinoline against normal microflora. The broth microdilution assay was utilized to determine the MICs of DIHQ and control antibiotics against commensal organisms that compose he human gut microflora, as described elsewhere. A bacterial solution equivalent to 0.5 McFarland standard was prepared and diluted in BHIS broth (for Bifidobacterium and Bacteroides) or in MRS broth (for Lactobacillus) to achieve a bacterial concentration of about 5×10^5 CFU/mL. Then, drugs were added and serially diluted along the plates.

In experiment [6] the test system is Lactobacillus and Bacteroides strains. The experiment in a line: MIC against normal gut microflora. It is filed as cell-based. As to conditions: Phocaeicola dorei; Lactobacillus and Bacteroides strains tested, with the exception of B. dorei HM-719; read-out: MIC (growth inhibitory concentration). The procedure: as §2
The test system of experiment [7] is 2 clinical C. difficile strains. The experiment can be described thus: Initial screening of antiparasitic drugs, both strains. It is filed as cell-based, Clostridium difficile. As to conditions: Clostridioides difficile, both tested C. difficile strains, read-out: MIC (growth inhibitory concentration). The procedure: C. difficile strains were grown anaerobically on brain heart infusion supplemented (BHIS) agar plates at 37° C. for 48 hours. Afterwards, a bacterial solution equivalent to 0.5 McFarland standard was prepared and diluted in (BHIS) broth to achieve a bacterial concentration of about 5×10^5 CFU/mL. Drugs were added and serially diluted along the plates. Plates were then, incubated anaerobically at 37° C. for 48 hours. MICs reported in Table (1) are the minimum concentrations of the drugs that could completely suppress the visual growth of bacteria.

Experiment [8] relates to C. difficile clinical isolates. The experiment can be described thus: Checkerboard assay, summary over 9 tested strains. The class given is cell-based, Clostridium difficile. The procedure:
Interactions between diiodohydroxyquinoline and the anticlostridial drugs (metronidazole and vancomycin) against Clostridium difficile clinical isolates. […] The fractional inhibitory concentration index (ΣFIC) was calculated for each interaction. Interactions where the ΣFIC index was ≤0.5 were categorized as synergistic (SYN).

Experiment [9] concerns Bifidobacterium longum. The experiment in a line: MIC against normal gut microflora. It is filed as cell-based. As to conditions: both strains. The procedure: as §2
Experiment [10] relates to species of Bacteroides and Bifidobacterium. The experiment can be described thus: MIC against normal gut microflora. It is filed as cell-based. The conditions noted are these: species of Bacteroides and Bifidobacterium tested; for DIHQ except B. longum, B. adolescentis, B. angulatum; read-out: MIC (growth inhibitory concentration). The procedure:
as §2

Setting [11] is: DIHQ with metronidazole, C. difficile ATCC 43255.
Setting [12] is: DIHQ with vancomycin, C. difficile ATCC 43255.
Setting [13] is: DIHQ with metronidazole, C. difficile ATCC BAA-1870.
The mark [14] stands for this setting: DIHQ with vancomycin, C. difficile ATCC BAA-1870.
Setting [15] is: DIHQ with metronidazole, C. difficile I9.
[16] abbreviates: DIHQ with vancomycin, C. difficile I9.

In brackets after ≈: the same amount, converted by molar mass. Where two headings read alike, the source gives them in different places.

Turning to `CN[C@H](CC(C)C)C(=O)N[C@H]1C(=O)N[C@@H](CC(N)=O)C(=O)N[C@H]2C(=O)N[C@H]3C(=O)N[C@H](C(=O)N[C@H](C(=O)O)c4cc(O)cc(O)c4-c4cc3ccc4O)[C@H](O)c3ccc(c(Cl)c3)Oc3cc2cc(c3O[C@@H]2O[C@H](CO)[C@@H](O)[C@H](O)[C@H]2O[C@H]2C[C@](C)(N)[C@H](O)[C@H](C)O2)Oc2ccc(cc2Cl)[C@H]1O` [Vancomycin, vancomycin], the MIC in experiment [1] was 1 µg/mL (≈ 0.69 µM); in [2] (ATCC43255, read-out: MIC alone), 1 µg/mL; in [3] (ATCCBAA1870, read-out: MIC alone) it was 1 µg/mL; in experiment [4] (I9, read-out: MIC alone) it was 1 µg/mL; in experiment [5] it was at most 1 µg/mL. Further, the “MIC of vancomycin combined with DIHQ” value in experiment [2] (C. difficile ATCC 43255), in [3] (C. difficile ATCC BAA-1870) and in experiment [4] (C. difficile I9) was 0.125 µg/mL each time.

Turning to `CCc1c(Cl)c(O)c(Cl)c(O)c1C(=O)O[C@H]1[C@H](O)[C@H](OC)[C@H](OC/C2=C\C=C\C[C@H](O)/C(C)=C/[C@H](CC)[C@@H](O[C@@H]3OC(C)(C)[C@@H](OC(=O)C(C)C)[C@H](O)[C@@H]3O)/C(C)=C/C(C)=C/C[C@@H]([C@@H](C)O)OC2=O)O[C@@H]1C` [Fidaxomicin, fidaxomicin], the MIC in experiment [6] was over 128 µg/mL.

Regarding `Oc1c(I)cc(I)c2cccnc12` [DIHQ, 5,7-diiodoquinolin-8-ol], the MIC in experiment [1] (initial screening, C. difficile ATCC BAA 1870, read-out: MIC) is 1 µg/mL (≈ 2.52 µM); in [7] it was 0.5 to 1 µg/mL (≈ 1.26 to 2.52 µM); in experiment [2] (ATCC43255, C. difficile ATCC 43255, Table 3, read-out: MIC alone) it was 1 µg/mL; in experiment [3] (ATCCBAA1870, C. difficile ATCC BAA-1870, Table 3, read-out: MIC alone) it was 1 µg/mL; in experiment [4] (C. difficile I9, Table 3, read-out: MIC alone) it was 0.06 µg/mL; in experiment [9] it was 64 to 128 µg/mL (≈ 161 to 322 µM). In addition, the MIC in experiment [10] is over 128 µg/mL. Besides, the “MIC of DIHQ combined with metronidazole” value in experiment [2] (C. difficile ATCC 43255) was 0.25 µg/mL; in experiment [3] (C. difficile ATCC BAA-1870), 0.125 µg/mL; in experiment [4] (C. difficile I9) it was 0.06 µg/mL. Moreover, the entries for the “MIC of DIHQ combined with vancomycin” value in experiment [2] (C. difficile ATCC 43255), in experiment [3] (C. difficile ATCC BAA-1870) and in [4] (C. difficile I9) were 0.125 µg/mL, 0.06 µg/mL and 0.06 µg/mL, respectively. The MIC alone in experiment [2] (C. difficile ATCC 43255, Table 4) stood at 1 µg/mL; in experiment [3] (C. difficile ATCC BAA-1870, Table 4), 1 µg/mL; in experiment [4] (C. difficile I9, Table 4), 0.06 µg/mL. The Interpretation result is “SYN (ΣFIC index ≤0.5 is considered synergistic (SYN))” in experiment [2] (setting [11]); “SYN (ΣFIC index ≤0.5 is considered synergistic (SYN))” in [2] (setting [12]); “SYN (ΣFIC index ≤0.5 is considered synergistic (SYN))” in experiment [3] (setting [13]); “SYN (ΣFIC index ≤0.5 is considered synergistic (SYN))” in experiment [3] (setting [14]); “ADD (ΣFIC index >0.5 − 1.25 is considered additive (ADD))” in [4] (setting [15]); “ADD (ΣFIC index >0.5 − 1.25 is considered additive (ADD))” in experiment [4] (setting [16]). In addition, the “ΣFIC Index” value in experiment [2] (setting [11]) was found to be 0.375; in experiment [2] (setting [12]), 0.25; in [3] (setting [13]) it was 0.25; in experiment [3] (setting [14]), 0.185; in [4] (setting [15]), 1.125; in [4] (setting [16]), 1.125. Also, the “tested strains with a synergistic relationship” value in experiment [8] (DIHQ combined with metronidazole) was 7 out of 9. Moreover, the “tested strains with a synergistic interaction” value in experiment [8] (DIHQ combined with vancomycin) is on record as 5 out of 9.

On to `Cc1ncc([N+](=O)[O-])n1CCO` [Metronidazole, metronidazole], for which the “MIC of metronidazole combined with DIHQ” value in [2] (C. difficile ATCC 43255), in [3] (C. difficile ATCC BAA-1870) and in experiment [4] (C. difficile I9) was 0.015 µg/mL each time. For the same compound, the MIC in experiment [10] is at most 2 µg/mL.

The values above are taken from patent US11806342B2, “Diiodohydroxyquinoline for the treatment of clostridium difficile infection” (Purdue Research Foundation, priority 2019, dated 2023).
